Results taken from patent publication US10807960B2, “Compounds, compositions, and methods for controlling biofilms” (KATHOLIEKE UNIVERSITEIT LEUVEN, priority 2015, dated 2020).
Read-outs that look alike come from different tables or passages of the source.

What was measured:
[1] = test system: C. albicans SC5314 + S. epidermidis; assay: mixed C. albicans/S. epidermidis biofilm assay, selective plating; format: cell-based, Candida albicans; Staphylococcus epidermidis; conditions: for activity at 25 µM: 25 μM (Table 5); for activity at 100 µM: 100 μM (Table 5)
Experimental: The concentrations 25 μM (0.0625% DMSO or ethanol) and 100 μM (0.25% DMSO or ethanol) were tested. After 24 h of incubation at 37° C., biofilms were washed with PBS and fresh medium with or without compounds was added. After further incubation for 48 h at 37° C., the biofilms were washed with PBS after which the cells were re-suspended in 100 μl of PBS by scraping off, sonication (1 min, 45 kHz, USC300-T; VWR, Radnor, Pa., USA) and vigorously pipetting up-and-down. Finally, the biofilm cells were diluted in PBS and plated on YPD agar plates containing 100 mg/L ampicillin and TSA plates containing 25 mg/L amphotericin B, to determine the number of fungal and bacterial CFUs after 2 days of incubation at 37° C., respectively. The percentage of C. albicans SC5314 and S. epidermidis cells was determined relative to the DMSO or ethanol control treatment.

[2] = test system: E. coli TG1 + P. aeruginosa PA14; assay: mixed E. coli/P. aeruginosa biofilm assay, crystal violet; format: cell-based; conditions: for IC50: 37° C. (Table 3)
Experimental: Overnight cultures of E. coli TG1 and P. aeruginosa PA14, were diluted 1/100 in the same vial of TSB 1/20 to form a mixed culture suspension.

[3] = test system: bone-marrow derived mesenchymal stem cells (MSC); assay: mammalian-cell viability assay, trypan blue staining; format: cell-based; conditions: 12.5 μM, 6 days exposure
Experimental: (§1) Cell viability of two human primary cell types, namely, osteoblasts (OB) and bone-marrow derived mesenchymal stem cells (MSC) was tested according to the ISO 10993-5 standard, as previously described. Briefly, cells were seeded in 96-well tissue culture test plates (TPP, Switzerland) at 5×10^3 cells/cm^2 in Advanced DMEM cell culture media supplemented with 10% serum, 1× GlutaMAX, 0.05 mg/mL Gentamycin, and were allowed to attach overnight. The next day, the cells were exposed to (i) cell culture medium and medium with the corresponding control (0.5% ethanol or DMSO) (negative controls), (ii) medium with 0.05% phenol (cytotoxic control), and (iii) medium with compounds (12.5 μM) and incubated for 2 h, 48 h and 6 days (8 repeats for each condition). At each time-point the numbers of viable and dead cells were determined directly by trypan blue staining, and indirectly by measuring the metabolic activity with MTT (3-(4,5-dimethylthiazol-2-yl)-2,5-diphenyltetrazolium bromide) staining.
(§2) The medium was removed from the wells, and 1/3 trypan blue in Dulbecco's modified Eagle's medium (DMEM) was added to the cells, incubated for 3 min, after which trypan blue was removed and DMEM medium was added to the wells. In each of four wells, two microscopy fields were counted for viable (transparent) and dead (blue) cells.

E. coli TG1 = assay: static peg (Calgary Biofilm Device) anti-biofilm assay, crystal violet and OD600; conditions: for IC50: 37° C.
S. liquefaciens MG44 = assay: as above; format: cell-based, Serratia liquefaciens; conditions: 25° C.
C. albicans SC5314 = assay: inhibition of C. albicans biofilms, cell titer blue (CTB) quantification; format: cell-based, Candida albicans; conditions: for IC50: biofilm formation, 37° C., read-out: BIC50
Experimental: The potential of the compounds to prevent C. albicans SC5314 biofilm formation was assessed using the cell titer blue (CTB) quantification method (26). For the CTB method, an overnight culture of C. albicans SC5314 was washed with PBS and a cell suspension of 10^6 cells/ml (OD600=0.1) was prepared in RPMI 1640 medium (pH 7.0). […] After 16 h of static incubation at 37° C., biofilms were washed and quantified with CTB as described previously.

[4] = test system: S. aureus ATCC6538 + S. epidermidis; assay: mixed S. aureus/S. epidermidis biofilm assay, crystal violet; format: cell-based; conditions: 37° C. (Table 3)
Experimental: Overnight cultures of S. aureus ATCC6538 and S. epidermidis were grown in LB medium and were diluted 1/200 in the same vial of TSB to form a mixed culture suspension.

S. aureus ATCC6538 = assay: static peg (Calgary Biofilm Device) anti-biofilm assay, crystal violet and OD600; conditions: 37° C.
S. aureus SH1000 = assay: as above; conditions: for IC50: 37° C.
S. epidermidis = assay: as above; conditions: for IC50: 37° C.
P. gingivalis ATCC33277 = assay: as above
P. aeruginosa PA14 = assay: as above
S. Typhimurium ATCC14028 = assay: as above
B. cepacia LMG1222T = assay: as above; conditions: for IC50: 25° C.
osteoblasts (OB) = assay: mammalian-cell viability assay, trypan blue staining; format: cell-based; conditions: 12.5 μM, 6 days exposure
Experimental: as §1, §2

[5] = C. albicans in mixed biofilm with S. epidermidis, read-out: CFUs % survival C.a.
[6] = S. epidermidis in mixed biofilm with C. albicans, read-out: CFUs % survival Se.
[7] = biofilm formation, read-out: BIC50
[8] = planktonic growth, read-out: IC50
[9] = mixed biofilm formation, read-out: BIC50
[10] = planktonic growth of mixed culture, read-out: IC50
[11] = read-out: BIC50, biofilm formation
[12] = read-out: BIC50, biofilm formation, 37° C.
[13] = read-out: BIC50, biofilm formation, 25° C.

SMILES	activity at 25 µM [1, 5]	activity at 100 µM [1, 5]	activity at 100 µM [1, 6]	inhibition of the mixed biofilm P. aeruginosa/E. coli (in words) [2]	proliferation (in words) [3]	anti-biofilm activity (in words) (E. coli TG1; biofilm cells at 25° C.)	IC50 (S. liquefaciens MG44; [7])	IC50 (S. liquefaciens MG44; [8])	IC50 (C. albicans SC5314)	IC50 [2, 9]	IC50 [2, 10]	IC50 [4, 9]	IC50 [4, 10]	IC50 (S. aureus ATCC6538; planktonic growth)	IC50 (S. aureus ATCC6538; [11])	IC50 (S. aureus SH1000; planktonic growth)	IC50 (S. aureus SH1000; [11])	IC50 (S. epidermidis; planktonic growth)	IC50 (S. epidermidis; [11])	IC50 (P. gingivalis ATCC33277; planktonic growth, 37° C.)	also measured
CCCCCCCCn1c(-c2ccc(Cl)cc2)cnc1NC1CCCC1 [Compound 8f, 5-(4-chlorophenyl)-N-cyclopentyl-1-octyl-1H-imidazol-2-amine]	2.9%	7.2%	0.3%	at higher concentrations	slightly reduced	potent activity	–	–	–	–	–	–	–	–	–	–	–	–	–	–	activity at 25 µM ([1]; S. epidermidis in mixed biofilm with C. albicans, read-out: CFUs % survival S.c.): 2.5%
CCCCNc1ncc(-c2ccc(Br)cc2)[nH]1 [Compound 4]	–	–	–	–	–	–	4.4 µM	118 µM	66.7 µM	17.8 µM	> 400 µM	6.8 µM	~118 µM	60.1 µM	~12.3 µM	89.4 µM	66.5 µM	54.4 µM	> 400 µM	8.2 µM	IC50 (P. gingivalis ATCC33277; [12]): 3.7 µM; IC50 (E. coli TG1; planktonic growth): 23 µM; IC50 (E. coli TG1; [11]): 84.7 µM; IC50 (P. aeruginosa PA14; planktonic growth, 37° C.): > 400 µM; IC50 (P. aeruginosa PA14; [13]): 9.8 µM; IC50 (P. aeruginosa PA14; [12]): > 400 µM; IC50 (S. Typhimurium ATCC14028; [13]): 7.1 µM; IC50 (B. cepacia LMG1222T; planktonic growth): > 400 µM; IC50 (B. cepacia LMG1222T; [11]): 189 µM
CCCCCCCCn1c(-c2ccccc2)cnc1NC1CCCC1 [Compound 8e, N-cyclopentyl-1-octyl-5-phenyl-1H-imidazol-2-amine]	10%	2.5%	0%	at higher concentrations	slightly reduced	potent activity	–	–	–	–	–	–	–	–	–	–	–	–	–	–	proliferation (in words) (osteoblasts (OB)): slightly reduced; anti-biofilm activity (in words) (E. coli TG1; biofilm at 37° C.): showed activity
Brc1ccc(-c2cnc(NCCn3cc(C4CC4)nn3)[nH]2)cc1 [Compound 6]	–	–	–	–	–	–	63.3 µM	> 400 µM	> 400 µM	34.6 µM	> 400 µM	33.9 µM	~392 µM	> 400 µM	75.2 µM	> 400 µM	> 400 µM	> 400 µM	> 400 µM	19.5 µM	anti-biofilm activity (in words) (C. albicans SC5314; monospecies biofilm, novel compounds: highest concentration tested 100 μM): No activity; anti-biofilm activity (in words) (S. aureus SH1000; monospecies biofilm): No activity; anti-biofilm activity (in words) (S. epidermidis; monospecies biofilm): No activity; IC50 (P. gingivalis ATCC33277; [11]): 18.1 µM; IC50 (E. coli TG1; planktonic growth): 183 µM; IC50 (E. coli TG1; [11]): ~192 µM; anti-biofilm activity (in words) (P. aeruginosa PA14; monospecies biofilm, 37° C.): No activity; IC50 (P. aeruginosa PA14; planktonic growth, 25° C.): > 400 µM; IC50 (P. aeruginosa PA14; planktonic growth, 37° C.): > 400 µM; IC50 (P. aeruginosa PA14; [13]): 71.6 µM; IC50 (P. aeruginosa PA14; [12]): > 400 µM; IC50 (S. Typhimurium ATCC14028; planktonic growth, 25° C.): 2.4 µM; IC50 (S. Typhimurium ATCC14028; [11]): 2 µM; anti-biofilm activity (in words) (B. cepacia LMG1222T; monospecies biofilm): No activity; IC50 (B. cepacia LMG1222T; planktonic growth): > 400 µM; IC50 (B. cepacia LMG1222T; [11]): > 400 µM
